# Reference: patent US6613317B1, “Volatile attractants for diabrotica species” (priority 1988, dated 2003)
# Marks after values point to notes of the source that are not given here.
# Assays:
# [1] = tested on: northern corn rootworm (NCR); test: Sticky trap attraction in corn, phenylethanol analogues (Example 6); type: in vivo, Diabrotica barberi; details: four replicates; for Mean number of NCR per trap (± standard deviation): Table 20, 100 mg per trap, 24 hour
# Method: (§1) Test chemicals (purchased from Aldrich Chemical Co.; Milwaukee, Wis.) were applied by capillary micropipettes to cotton dental wicks that were attached to tops of 1.0 liter cylindrical paper cartons covered with TangleTrap™, Grand Rapids, Mich. The trapping techniques used were as previously described in Example 1. Unless otherwise indicated, all treatments were made at a dosage of 100 mg or 100 μL of attractant per trap. Control traps had untreated wicks. Four replicates of treated and untreated traps were positioned randomly 10 meters apart on top of 1 m high posts along the edges of 25-50 ha. fields of hybrid corn (Zea mays), infested with adult NCR, SCR, and WCR beetles. Several experiments detailed in the Tables were made in a 0.4 ha plot of sweet corn (Illini X-tra Sweet).
# (§2) Attraction of Diabrotica species adults of the sticky traps was measured by the mean number of beetles caught after 1 day (ca. 24 hours) exposure. The significance of the treatments was determined by analysis of variance and the individual means were separated by Duncan's multiple range test (Statistical Package for the Social Sciences, Nie, et al., 2nd. ed. McGraw-Hill, New York (1975). The data was logarithmically transformed for statistical analysis. Means and standard deviations are presented for the untransformed data. Significance levels were set at P=0.05 for all statistical analyses.
# [2] = tested on: southern corn rootworm (SCR) adults; test: Sticky trap attraction in sweet corn plots (Example 1); type: in vivo, Diabrotica undecimpunctata howardi; details: August first year, single compounds 100 mg per trap
# Method: (§3) The attraction of Diabrotica species to single-component and multicomponent lures was evaluated in corn fields. The field experiments on attraction of SCR and WCR adults were conducted in 0.405-ha (1-acre) plots of “Illini Xtra Sweet” corn grown on the University of Illinois South Farms at Urbana, Ill., over a two year period. Most of the tests were conducted in August to correspond with the peak silk-feeding and oviposition periods of corn rootworm adults in central Illinois. In both years, the sweet corn plot was adjacent to a 0.405-ha trap crop of C. maxima cultivar “Blue Hubbard”, to provide high densitites of SCR and WCR adults in the corn plots (Howe, et al., Environ. Entomol., 5:745-751 (1976), Lampman, et al., J. Chem. Ecol., 13:959-975 (1987).
# (§4) Attraction of Diabrotica species to volatile compounds was measured by the average number of beetles cought during a 24-h period on 1.0-liter cylindrical paper cartons (15.2 cm high, 27.9 cm circumference) which were evenly coated with clear insect adhesive, TangleTrap™ (Tanglefood Co., Grand Rapids, Mich.) The candidate attractants were applied by capillary micropiettes to cotton dental wicks (13 mm long by 6 mm diameter) that were previously impregnated with mineral oil to prolong volatilization. The chemicals were purchased from Aldrich Chemical Co., (Milwaukee, Wis.) and assayed by gas chromatography as >97% pure. Indole, a solid at ambient temperatures (m.p. 52-54° C.), was dissolved in glass-distilled acetone before dosing the cotton wicks. For dosage-acticity tests, the various components were mixed in equal quantities by weight and diluted to the appropriate dosage with acetone. Treated and untreated (control) wicks were attached to the top of the paper cartons with TangleTrap™ and the inverted traps were placed on 1-m-high posts between the sweet corn rows. Four replicates of each treatment and a control were conducted in a randomized complete block desgin. The sticky traps within a block (ca. 50-m row of corn) were 5-10 m apart (depending on the number of treatments in a particular test) and the blocks were 3 m apart. The traps were baited and placed in the field between 1000 and 1300 hours and beetle counts were taken after 24 h. The significance of treatments was determined by analysis of variance and the individual means were separated by Duncan's multiple range test (Statistical Package for Social Sciences (SPSS) (Nie, et al., SPSS: statistical package for the social sciences, 2nd ed. McGraw-Hill, N.Y. (1975)). Student's t test was used for comparisons of two means (Sokal, et al., Biometry, Freeman, San Francisco (1969). Significance levels were set at P=0.05 at all statistical analyses.
# (§5) The initial field test in August of the first year evaluated the response of SCR and WCR adults of a mixture of veratrole (V), indole (I), phenylacetaldehyde (P), trans-anethole (A), and eugenol (E) (=VIPAE mixture), as well as to the individual components. Each component in the VIPAE mixture was present at a dosage of 20 mg per trap and was compared with the individual components at 100 mg per trap. The response of SCR and WCR adults to a range of VIPAE doses, 1-300 mg, was conducted on the following day. Fifty SCR adults were removed from each 100-mg VIPAE trap, and returned to the laboratory for sex determination. Additional analyses in August evaluated the reduction in trap catches produced by the sequential removal of the individual components from the VIPAE lure. After the primary components of the initial lure were determined, a modified multicomponent lure consisting of veratrole, indole, and phenylacetaldehyde (=VIP mixture) was compared with its individual components to determine whether the attraction of SCR adults was the result of interactive or additive factors. The attraction and synergistic response of SCR adults of the VIP mixture was verified by tests conducted in August of the following year. […]
# [3] = tested on: western corn rootworm (WCR) adults; test: as above; type: in vivo, Diabrotica virgifera virgifera; details: August first year, single compounds 100 mg per trap
# Method: as §3, §4, §5
# [4] = tested on: western corn rootworm (WCR) adults; test: Sticky trap attraction in corn, estragole analogues (Example 3); type: in vivo, Diabrotica virgifera virgifera; details: 100 mg per trap; for Mean number of WCR per sticky trap (±standard deviation) after 24 hours / Mean number of WCR adults per sticky trap (±standard deviation) after 24 hours: n = 4
# Method: as §1, with “chemicals” for “chemicals (purchased from Aldrich Chemical Co.; Milwaukee, Wis.)”, “Cinnamyl alcohol, 4-methoxycinnamaldehyde, cinnamyl acetate, and 4-(4′methoxyphenyl)-3-butene-2-one which are solids at ambient temperature were prepared as standard w/v solutions in acetone prior to dosing the cotton wicks. All” for “Unless otherwise indicated, all”
# as §2
# [5] = tested on: southern corn rootworm (SCR) adults; test: as above; type: in vivo, Diabrotica undecimpunctata howardi; details: 100 mg per trap, n = 4
# Method: as §1, with “chemicals” for “chemicals (purchased from Aldrich Chemical Co.; Milwaukee, Wis.)”, “Cinnamyl alcohol, 4-methoxycinnamaldehyde, cinnamyl acetate, and 4-(4′methoxyphenyl)-3-butene-2-one which are solids at ambient temperature were prepared as standard w/v solutions in acetone prior to dosing the cotton wicks. All” for “Unless otherwise indicated, all”
# as §2
# [6] = South Farms, 24 h, mixture 20 mg of each component, n = 4
compound,measurement,setting,value
COc1ccc(CCN)cc1 [4-methoxyphenylethylamine],Mean number of NCR per trap (± standard deviation),[1],24.2 ± 15.4a per trap
"CC=Cc1cccc(OC)c1 [II, 4-methoxy-2-propenylbenzene]",Mean number of SCR per trap (±standard deviation),[2]; [6],1.5 ± 1.0 per trap
same,relative percent activity of the mean SCR trap catch as compared with the highest mean value in the column,[2]; mixture 20 mg each component,7%
same,Mean number of WCR per trap (±standard deviation),[3]; [6],9.0 ± 4.3 per trap
same,relative percent activity of the mean WCR trap catch as compared with the highest mean value in the column,[3]; mixture 20 mg each component,100%
same,Relative percent activity as compared with the highest mean in the column (WCR),[4]; July 30,58%
same,Mean number of WCR per sticky trap (±standard deviation) after 24 hours,[4]; July 30,48.0 ± 23.3 per sticky trap
"C=Cc1ccc(OC)cc1 [III, 4-methoxy-1-vinyl benzene]",Relative percent activity as compared with the highest mean in the column (WCR),[4]; August 29,15%
same,Mean number of WCR per sticky trap (±standard deviation) after 24 hours,[4]; August 29,21.5 ± 6.5 per sticky trap
same,Relative percent activity as compared with the highest mean in the column (WCR),[4]; July 30,40%
same,Mean number of WCR per sticky trap (±standard deviation) after 24 hours,[4]; July 30,32.2 ± 13.5 per sticky trap
"CCCc1ccc(OC)cc1 [IV, 4-methoxy-1-propylbenzene]",Relative percent activity as compared with the highest mean in the column (WCR),[4]; July 30,37%
same,Mean number of WCR per sticky trap (±standard deviation) after 24 hours,[4]; July 30,30.5 ± 11.0 per sticky trap
"COc1ccc(C=CC#N)cc1 [IX, 4-methoxycinnamonitrile]",Mean number of SCR adults per sticky trap (±standard deviation) after 24 hours,[5]; August 4 second year,4.0 ± 2.2^ab per sticky trap
same,Mean number of SCR adults per sticky trap (±standard deviation) after 24 hours,[5]; August 5 first year,6.5 ± 3.0^a per sticky trap
same,Mean number of WCR adults per sticky trap (±standard deviation) after 24 hours,[4]; August 4 second year,196.0 ± 145.3^de per sticky trap
same,Mean number of WCR adults per sticky trap (±standard deviation) after 24 hours,[4]; August 5 first year,59.0 ± 32.1^d per sticky trap
"COCc1ccc(OC)cc1 [V, 4-methoxy benzyl methyl ether]",Relative percent activity as compared with the highest mean in the column (WCR),[4]; August 29,32%
same,Mean number of WCR per sticky trap (±standard deviation) after 24 hours,[4]; August 29,46.7 ± 29.6 per sticky trap
same,Relative percent activity as compared with the highest mean in the column (WCR),[4]; July 30,46%
same,Mean number of WCR per sticky trap (±standard deviation) after 24 hours,[4]; July 30,37.7 ± 23.4 per sticky trap
"COc1ccc(CC#N)cc1 [VII, 4-methoxyphenyl acetonitrile]",Relative percent activity as compared with the highest mean in the column (WCR),[4]; August 29,78%
same,Mean number of WCR per sticky trap (±standard deviation) after 24 hours,[4]; August 29,114.5 ± 83.4 per sticky trap
same,Relative percent activity as compared with the highest mean in the column (WCR),[4]; July 30,46%
same,Mean number of WCR per sticky trap (±standard deviation) after 24 hours,[4]; July 30,37.5 ± 8.4 per sticky trap
"C=CCc1ccccc1 [VIII, allylbenzene]",Mean number of SCR adults per sticky trap (±standard deviation) after 24 hours,[5]; August 4 second year,12.4 ± 7.2^b per sticky trap
same,Mean number of SCR adults per sticky trap (±standard deviation) after 24 hours,[5]; August 5 first year,24.7 ± 16.9^a per sticky trap
same,Mean number of WCR adults per sticky trap (±standard deviation) after 24 hours,[4]; August 4 second year,10.0 ± 1.4^a per sticky trap
same,Mean number of WCR adults per sticky trap (±standard deviation) after 24 hours,[4]; August 5 first year,1.0 ± 0.8^a per sticky trap
"COc1ccccc1C=CC=O [XIII, 2-methoxycinnamaldehyde]",Mean number of SCR adults per sticky trap (±standard deviation) after 24 hours,[5]; August 4 second year,12.2 ± 9.9^b per sticky trap
same,Mean number of WCR adults per sticky trap (±standard deviation) after 24 hours,[4]; August 4 second year,53.0 ± 14.7^c per sticky trap
"COc1ccc(C=CC(C)=O)cc1 [XVI, 4-(4′-methoxyphenyl)-3-butene-2-one]",Mean number of SCR adults per sticky trap (±standard deviation) after 24 hours,[5]; September 11,1.0 ± 0.8^a per sticky trap
same,Mean number of WCR adults per sticky trap (±standard deviation) after 24 hours,[4]; September 11,2.0 ± 3.7^a per sticky trap
"CC(=O)C=Cc1ccccc1 [XVII, phenyl-3-butone-2-one ketone]",Mean number of SCR adults per sticky trap (±standard deviation) after 24 hours,[5]; September 11,5.0 ± 3.7^b per sticky trap
same,Mean number of WCR adults per sticky trap (±standard deviation) after 24 hours,[4]; September 11,0.0 per sticky trap
NCc1ccccc1 [benzylamine],Mean number of NCR per trap (± standard deviation),[1],57.5 ± 29.6b* per trap
NCCCCc1ccccc1 [phenylbutylamine],Mean number of NCR per trap (± standard deviation),[1],12.2 ± 6.1a per trap
NCCc1ccccc1 [phenylethylamine],Mean number of NCR per trap (± standard deviation),[1],206.7 ± 32.3d per trap
same,Mean number (control subtracted) of NCR per trap,[1]; day 1 after single 100 mg dosage on cotton wick,85.9 per trap
same,Mean number (control subtracted) of NCR per trap,[1]; day 2 after single 100 mg dosage on cotton wick,125.3 per trap
same,Mean number (control subtracted) of NCR per trap,[1]; day 3 after single 100 mg dosage on cotton wick,39.4 per trap
same,Mean number (control subtracted) of NCR per trap,[1]; day 4 after single 100 mg dosage on cotton wick,27.5 per trap
same,Mean number (control subtracted) of NCR per trap,[1]; day 5 after single 100 mg dosage on cotton wick,155.4 per trap
same,Mean number (control subtracted) of NCR per trap,[1]; day 6 after single 100 mg dosage on cotton wick,44.2 per trap
same,Mean number (control subtracted) of NCR per trap,[1]; day 7 after single 100 mg dosage on cotton wick,38.4 per trap
same,Mean number (control subtracted) of NCR per trap,[1]; day 8 after single 100 mg dosage on cotton wick,17.5 per trap
same,Mean number (control subtracted) of NCR per trap,[1]; day 11 after single 100 mg dosage on cotton wick,3.8 per trap
NCCCc1ccccc1 [phenylpropylamine],Mean number of NCR per trap (± standard deviation),[1],131.5 ± 16.5c per trap
